Consider 29 compounds from patent US8697739B2, “Bicyclic acetyl-CoA carboxylase inhibitors and uses thereof” (Novartis AG, priority 2010, dated 2014).

Some results are limits rather than exact numbers.

The target of the assay is T1, human acetyl-CoA carboxylase 2 (ACC2) (Homo sapiens, UniProt O00763).
T1 construct: The cDNA encoding amino acids 144 to 2458 of human acetyl-CoA carboxylase 2; made in house; host or cells: Sf9 insect cells (baculovirus, pFastBac1)
T1 sequence (O00763 144-2458): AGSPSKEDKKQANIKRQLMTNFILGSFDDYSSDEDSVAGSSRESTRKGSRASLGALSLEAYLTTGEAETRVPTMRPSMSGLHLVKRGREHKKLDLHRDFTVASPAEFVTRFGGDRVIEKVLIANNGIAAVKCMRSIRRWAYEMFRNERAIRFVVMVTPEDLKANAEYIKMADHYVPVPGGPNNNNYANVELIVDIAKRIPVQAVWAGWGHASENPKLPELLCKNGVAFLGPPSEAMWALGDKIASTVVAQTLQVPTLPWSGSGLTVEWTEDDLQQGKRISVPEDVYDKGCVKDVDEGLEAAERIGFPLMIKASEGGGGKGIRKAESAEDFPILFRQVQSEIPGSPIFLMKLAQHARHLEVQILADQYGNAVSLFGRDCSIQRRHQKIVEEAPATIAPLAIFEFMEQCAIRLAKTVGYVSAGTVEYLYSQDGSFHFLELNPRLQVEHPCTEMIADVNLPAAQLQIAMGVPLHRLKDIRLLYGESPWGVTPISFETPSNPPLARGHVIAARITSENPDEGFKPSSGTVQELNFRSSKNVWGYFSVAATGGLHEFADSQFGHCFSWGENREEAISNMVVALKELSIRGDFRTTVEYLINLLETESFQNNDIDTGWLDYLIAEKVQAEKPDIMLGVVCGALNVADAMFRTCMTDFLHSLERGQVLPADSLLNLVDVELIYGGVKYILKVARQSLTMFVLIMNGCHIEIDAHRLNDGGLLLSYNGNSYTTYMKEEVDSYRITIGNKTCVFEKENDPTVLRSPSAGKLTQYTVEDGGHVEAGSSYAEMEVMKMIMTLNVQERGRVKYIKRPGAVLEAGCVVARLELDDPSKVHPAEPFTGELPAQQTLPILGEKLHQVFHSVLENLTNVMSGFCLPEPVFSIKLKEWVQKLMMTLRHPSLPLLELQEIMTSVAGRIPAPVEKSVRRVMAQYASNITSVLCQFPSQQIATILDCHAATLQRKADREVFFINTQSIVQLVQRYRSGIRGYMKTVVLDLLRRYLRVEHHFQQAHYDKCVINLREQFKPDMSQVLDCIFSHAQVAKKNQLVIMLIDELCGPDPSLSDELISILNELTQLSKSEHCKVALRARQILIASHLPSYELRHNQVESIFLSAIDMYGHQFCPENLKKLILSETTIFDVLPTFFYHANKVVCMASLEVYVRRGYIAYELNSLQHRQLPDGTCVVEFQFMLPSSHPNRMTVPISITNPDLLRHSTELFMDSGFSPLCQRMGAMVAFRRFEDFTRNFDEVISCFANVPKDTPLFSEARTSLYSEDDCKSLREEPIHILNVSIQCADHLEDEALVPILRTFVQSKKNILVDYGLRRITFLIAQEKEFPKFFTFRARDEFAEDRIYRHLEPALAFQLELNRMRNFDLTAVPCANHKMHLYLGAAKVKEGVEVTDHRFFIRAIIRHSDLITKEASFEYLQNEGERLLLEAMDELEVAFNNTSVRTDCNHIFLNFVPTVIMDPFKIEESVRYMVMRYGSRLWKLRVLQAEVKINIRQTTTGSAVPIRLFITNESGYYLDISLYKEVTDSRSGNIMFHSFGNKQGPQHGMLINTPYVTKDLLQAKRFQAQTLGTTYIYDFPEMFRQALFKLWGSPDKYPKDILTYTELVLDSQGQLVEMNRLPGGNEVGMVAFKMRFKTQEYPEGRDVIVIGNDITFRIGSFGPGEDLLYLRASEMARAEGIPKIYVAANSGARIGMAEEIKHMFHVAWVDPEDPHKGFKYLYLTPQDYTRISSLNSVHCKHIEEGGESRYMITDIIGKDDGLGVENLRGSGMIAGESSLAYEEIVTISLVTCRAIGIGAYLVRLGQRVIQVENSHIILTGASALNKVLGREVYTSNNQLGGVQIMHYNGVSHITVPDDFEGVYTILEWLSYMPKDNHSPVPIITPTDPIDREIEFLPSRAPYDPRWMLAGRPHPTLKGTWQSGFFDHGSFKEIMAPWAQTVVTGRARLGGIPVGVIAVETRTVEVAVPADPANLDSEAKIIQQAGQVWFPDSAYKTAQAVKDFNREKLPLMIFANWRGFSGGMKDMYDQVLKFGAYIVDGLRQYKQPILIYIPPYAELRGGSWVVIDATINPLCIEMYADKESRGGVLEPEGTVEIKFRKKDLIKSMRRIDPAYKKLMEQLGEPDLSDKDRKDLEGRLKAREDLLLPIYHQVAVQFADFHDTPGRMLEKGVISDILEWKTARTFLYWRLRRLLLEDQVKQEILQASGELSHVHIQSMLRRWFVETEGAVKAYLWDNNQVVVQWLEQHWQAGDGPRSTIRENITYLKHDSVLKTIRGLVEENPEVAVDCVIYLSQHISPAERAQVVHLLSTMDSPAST
Description: Acetyl-CoA carboxylase enzyme assay (malonyl-CoA formation by LC/MS/MS). The class given is biochemical. Conditions: recombinant human ACC2 (aa 144-2458); read-out: IC50 ACC2. A digest of the protocol: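 Malonyl-CoA formation was read by LC/MS/MS MRM against a [13C3]-malonyl-CoA internal standard, after acetic acid quench. The enzyme was baculovirus/Sf9-expressed human ACC2 residues 144–2458, given 15 minutes room-temperature compound preincubation in HEPES pH 7.5 buffer with MgCl2, citrate and DTT. Substrate solution held 50 μM acetyl-CoA, 120 μM ATP and 2 mM KHCO3.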
The term IC50 denotes the midpoint of a concentration-inhibition curve. `O=C([C@H]1CC[C@H](NS(=O)(=O)c2ccc3c(c2)CCCN3)CC1)N1CCOCC1c1ccccc1` (some centres unmarked) [Example 177, N-((1r,4r)-4-(3-phenylmorpholine-4-carbonyl)cyclohexyl)-1,2,3,4-tetrahydroquinoline-6-sulfonamide]: the IC50 worked out at 90 nM. Turning to `C[C@@H](NC(=O)[C@H]1CC[C@H](NS(=O)(=O)c2cnc3ccccc3c2)CC1)c1ccc(F)cc1` [Example 105, (1r,4R)-N-((R)-1-(4-fluorophenyl)ethyl)-4-(quinoline-3-sulfonamido)cyclohexanecarboxamide], the 50% inhibitory concentration (IC50) is 252 nM. To `C[C@@H](NC(=O)[C@H]1CC[C@H](NS(=O)(=O)c2ccc3ncccc3c2)CC1)c1ccc(F)cc1` [Example 111, (1r,4R)-N-((R)-1-(4-fluorophenyl)ethyl)-4-(quinoline-6-sulfonamido)cyclohexanecarboxamide] belongs 139 nM; to `COC[C@@H](NC(=O)[C@H]1CC[C@H](NS(=O)(=O)c2ccc3cc(-c4ccccc4)n(C)c3c2)CC1)c1ccccc1` [Example 423, (1r,4S)-N-((S)-2-methoxy-1-phenylethyl)-4-(1-methyl-2-phenyl-1H-indole-6-sulfonamido)cyclohexanecarboxamide], 40 nM. To `C[C@@H]1CNc2ncc(S(=O)(=O)N[C@H]3CC[C@H](C(=O)N[C@H](C)c4ccc(F)cc4)CC3)cc2N1` [Example 172, (1R,4R)-N-((R)-1-(4-fluorophenyl)ethyl)-4-((R)-2-methyl-1,2,3,4-tetrahydropyrido[3,2-b]pyrazine-7-sulfonamido)cyclohexanecarboxamide] belongs 212 nM; to `C[C@@H](NC(=O)[C@H]1CC[C@H](NS(=O)(=O)c2ccc3nc(N(C)C)ccc3c2)CC1)c1ccc(F)cc1` [Example 53, (1r,4R)-4-(2-(dimethylamino)quinoline-6-sulfonamido)-N-((R)-1-(4-fluorophenyl)ethyl)cyclohexanecarboxamide], 93 nM.

Take `C[C@@H](NC(=O)C1CCC(NS(=O)(=O)c2cnc3c(c2)N[C@H](Cc2ccccc2)CS3)CC1)c1ccc(F)cc1` (stereo partly drawn) [Example 190, 4-((R)-2-benzyl-2,3-dihydro-1H-pyrido[2,3-b][1,4]thiazine-7-sulfonamido)-N-((R)-1-(4-fluorophenyl)ethyl)cyclohexanecarboxamide]: the concentration for half-maximal inhibition (IC50) amounted to 35 nM. To `Cc1cccc(C)c1Nc1nc2cc(S(=O)(=O)Nc3ccc(C(=O)OC(C)C)cc3)ccc2[nH]1` [Example 540, isopropyl 4-(2-(2,6-dimethylphenylamino)-1H-benzo[d]imidazole-5-sulfonamido)benzoate] belongs above 139000 nM; to `CN(C)CCNC(=O)[C@H]1CC[C@H](NS(=O)(=O)c2ccc3[nH]c(-c4ccccc4)nc3c2)CC1` [Example 631, (1r,4r)-N-(2-(dimethylamino)ethyl)-4-(2-phenyl-1H-benzo[d]imidazole-5-sulfonamido)cyclohexanecarboxamide], 10300 nM; to `CC(C)(C)c1nnc([C@H]2CC[C@H](NS(=O)(=O)c3ccc4[nH]c(Nc5ccc(N6CCOCC6)cc5)nc4c3)CC2)o1` [Example 600, N-((1r,4r)-4-(5-tert-butyl-1,3,4-oxadiazol-2-yl)cyclohexyl)-2-(4-morpholinophenylamino)-1H-benzo[d]imidazole-5-sulfonamide], 139 nM. To `CC(C)OC(=O)[C@H]1CC[C@H](NS(=O)(=O)c2ccc3[nH]c(-c4ccc(C(C)O)cc4)nc3c2)CC1` (some centres unmarked) [Example 556, (1r,4r)-isopropyl 4-(2-(4-(1-hydroxyethyl)phenyl)-1H-benzo[d]imidazole-5-sulfonamido)cyclohexanecarboxylate] belongs 25 nM; to `C[C@@H](NC(=O)[C@H]1CC[C@H](NS(=O)(=O)c2cnc3c(c2)OCCN3C)CC1)c1ccc(F)cc1` [Example 127, (1r-4R)-N-((R)-1-(4-fluorophenyl)ethyl)-4-(4-methyl-3,4-dihydro-2H-pyrido[3,2-b][1,4]oxazine-7-sulfonamido)cyclohexanecarboxamide], 391 nM; to `COC[C@@H](NC(=O)[C@H]1CC[C@H](NS(=O)(=O)c2ccc3cc(C4CC4)n(C)c3c2)CC1)c1ccccc1` [Example 377, (1r,4S)-4-(2-cyclopropyl-1-methyl-1H-indole-6-sulfonamido)-N-((S)-2-methoxy-1-phenylethyl)cyclohexanecarboxamide], 10 nM. To `C[C@@H](NC(=O)[C@H]1CC[C@H](NS(=O)(=O)c2ccc3cc(-c4ccccc4Cl)[nH]c3c2)CC1)c1ccc(F)cc1` [Example 291, (1r,4R)-4-(2-(2-chlorophenyl)-1H-indole-6-sulfonamido)-N-((R)-1-(4-fluorophenyl)ethyl)cyclohexanecarboxamide] belongs 17 nM. Take `Cc1cc2c(cc1S(=O)(=O)N[C@H]1CC[C@H](C(=O)N[C@H](C)c3ccc(F)cc3)CC1)NCCC2` [Example 188, (1r,4R)-N-((R)-1-(4-fluorophenyl)ethyl)-4-(6-methyl-1,2,3,4-tetrahydroquinoline-7-sulfonamido)cyclohexanecarboxamide]: the IC50 came to 375 nM. To `COCCOc1ccc(-c2cc3ccc(S(=O)(=O)N[C@H]4CC[C@H](C(=O)N[C@H](CO)C5CC5)CC4)cc3n2C)cc1` [Example 449, (1r,4S)-N-((S)-1-cyclopropyl-2-hydroxyethyl)-4-(2-(4-(2-methoxyethoxy)phenyl)-1-methyl-1H-indole-6-sulfonamido)cyclohexanecarboxamide] belongs 75 nM.

Take `C[C@H]1COCCN1C(=O)[C@H]1CC[C@H](NS(=O)(=O)c2ccc3c(C#N)c(C4CC4)n(C)c3c2)CC1` [Example 414, 3-cyano-2-cyclopropyl-1-methyl-N-((1S,4r)-4-((S)-3-methylmorpholine-4-carbonyl)cyclohexyl)-1H-indole-6-sulfonamide]: the IC50 came to 80 nM.

Regarding `Cn1c(-c2ccc(CCC(=O)O)cc2)cc2ccc(S(=O)(=O)N[C@H]3CC[C@H](C(=O)N4CCCCC4)CC3)cc21` [Example 359, 3-(4-(1-methyl-6-(N-((1r,4r)-4-(piperidine-1-carbonyl)cyclohexyl)sulfamoyl)-1H-indol-2-yl)phenyl)propanoic acid], the IC50 worked out at 95 nM. As for `O=C([C@H]1CC[C@H](NS(=O)(=O)c2cnc3c(c2)NCCS3)CC1)N1CCOCC1c1ccccc1` (some centres unmarked) [Example 193, N-((1r,4r)-4-(3-phenylmorpholine-4-carbonyl)cyclohexyl)-2,3-dihydro-1H-pyrido[2,3-b][1,4]thiazine-7-sulfonamide], the figure is 15 nM; as for `C[C@@H](NC(=O)[C@H]1CC[C@H](NS(=O)(=O)c2ccc3[nH]c(-c4ccncc4)nc3c2)CC1)c1ccccc1` [Example 280, (1r,4R)-N-((R)-1-phenylethyl)-4-(2-(pyridin-4-yl)-1H-benzo[d]imidazole-5-sulfonamido)cyclohexanecarboxamide], 12 nM. To `Cn1c(-c2ccc(CCC(=O)O)cc2)cc2ccc(S(=O)(=O)N[C@H]3CC[C@H](C(=O)N4CCC[C@H]4c4ccc(F)cc4)CC3)cc21` [Example 393, 3-(4-(6-(N-((1S,4r)-4-((S)-2-(4-fluorophenyl)pyrrolidine-1-carbonyl)cyclohexyl)sulfamoyl)-1-methyl-1H-indol-2-yl)phenyl)propanoic acid] belongs below 10 nM; to `Cn1c(-c2ccccc2)cc2ccc(S(=O)(=O)N[C@H]3CC[C@H](C(=O)N4CCN(C5CC5)CC4)CC3)cc21` [Example 406, N-((1r,4r)-4-(4-cyclopropylpiperazine-1-carbonyl)cyclohexyl)-1-methyl-2-phenyl-1H-indole-6-sulfonamide], 985 nM; to `C[C@@H](NC(=O)[C@H]1CC[C@H](NS(=O)(=O)c2ccc3c(ccn3C)c2)CC1)c1ccc(F)cc1` [Example 12, (1r,4R)—N—((R)-1-(4-fluorophenyl)ethyl)-4-(1-methyl-1H-indole-5-sulfonamido)cyclohexanecarboxamide], 55 nM. On to `Cn1c(C2CC2)c(C#N)c2ccc(S(=O)(=O)N[C@H]3CC[C@H](C(=O)N4CCC[C@@H]4C(F)(F)F)CC3)cc21` [Example 389, 3-cyano-2-cyclopropyl-1-methyl-N-((1R,4r)-4-((R)-2-(trifluoromethyl)pyrrolidine-1-carbonyl)cyclohexyl)-1H-indole-6-sulfonamide], for which the IC50 stood at 15 nM.

`C[C@@H](NC(=O)[C@H]1CC[C@H](NS(=O)(=O)c2cnc3c(c2)NCCN3C)CC1)c1ccc(F)cc1` [Example 142, (1r,4R)-N-((R)-1-(4-fluorophenyl)ethyl)-4-(4-methyl-1,2,3,4-tetrahydropyrido[3,2-b]pyrazine-7-sulfonamido)cyclohexanecarboxamide]: the IC50 is 68 nM. As for `CC(C)OC(=O)c1ccc(NS(=O)(=O)c2ccc3nc(-c4cccc(O)c4)[nH]c3c2)cc1` [Example 511, isopropyl 4-(2-(3-hydroxyphenyl)-1H-benzo[d]imidazole-6-sulfonamido)benzoate], the figure is 1050 nM; as for `C[C@@H](NC(=O)[C@H]1CC[C@H](NS(=O)(=O)c2ccc3cc(-c4c(Cl)cccc4Cl)[nH]c3c2)CC1)c1ccc(F)cc1` [Example 295, (1r,4R)-4-(2-(2,6-dichlorophenyl)-1H-indole-6-sulfonamido)-N-((R)-1-(4-fluorophenyl)ethyl)cyclohexanecarboxamide], 475 nM; as for `CC(C)OC(=O)c1ccc(NS(=O)(=O)c2ccc3[nH]c(Nc4ccc(N(C)C)cc4)nc3c2)cc1` [Example 551, isopropyl 4-(2-(4-(dimethylamino)phenylamino)-1H-benzo[d]imidazole-5-sulfonamido)benzoate], 282 nM. As for `CCOc1ccc2cc(S(=O)(=O)N[C@H]3CC[C@H](C(=O)N[C@H](COC(=O)[C@@H](N)Cc4ccccc4)c4ccccc4)CC3)ccc2n1` [Example 273, (S)-((S)-2-((1r,4S)-4-(2-ethoxyquinoline-6-sulfonamido)cyclohexanecarboxamido)-2-phenylethyl) 2-amino-3-phenylpropanoate], the figure is 39 nM.
